Test results reported in patent US10744146B2, “Composition having effects of preventing or ameliorating conditions or diseases caused by brain hypofunction” (SUNTORY HOLDINGS LIMITED, priority 2001, dated 2020).

Assays:
old male Fischer rats = assay: Probe test after Morris water maze learning (time in quadrant where escape platform used to be); format: in vivo, rat; details: for time spent in the quadrant (¼) where the escape platform used to be, mean±standard deviation: old rats 21 months
Method: A Morris water maze learning test was conducted around the third month of the experiment (age of old rats: 21 months, age of young rats: 7 months). The Morris water maze test is a learning test based on spatial recognition in which water stained black with ink is filled (height of water level: 20 cm) into a water tank (diameter: 120 cm, height: 35 cm), a rat is placed on an escape platform of a size (diameter: 11.5 cm, height: 19 cm) that is just large enough for the rat to stand on (the escape platform is located beneath the surface of the water and cannot be seen by rats swimming in the water tank), the rat on which the learning test is to be performed is placed in the water tank at a predetermined location in the tank (starting point), and then forced to swim to the escape platform. This test is recognized to have a correlation with the hippocampus that governs memory, and is widely used in the US and Europe. As the test is repeated, the rats learn the location of the escape platform. The rats were allowed to learn using the method described below. Namely, after releasing a rat from the starting point of the Morris water maze test apparatus, if the rat was unable to reach the escape platform within 60 seconds, the rat was placed on the escape platform, thereby enabling it to learn the location of the unseen escape platform. This learning process was continued for 2 weeks no more than twice a day. The percentage of the amount of time required to swim from the starting point to the escape platform within an angular deviation range of ±15° to the total swimming time (Hit %, see FIG. 2) was used as an indicator of learning. […] In FIG. 3, each graduation on the scale of the horizontal axis represents four trials, or two days worth of testing.
Next, in order to determine the degree of learning acquisition, a probe test was conducted on the day after two weeks of the aforementioned learning, namely on day 15. If the escape platform is taken away after the rats have acquired learning, the rats swim around at the location where the escape platform used to be. The time during which the rats swim around at the former location of the escape platform based on the memory of where it used to be (evaluated by dividing the water tank into four quadrants and evaluated as the amount of time (seconds) spent in the quadrant where the escape platform used to be) can used to evaluate the degree of learning acquisition. The paths swam by the No. 1 and No. 2 rats of the YC group, OA group and OC group are shown (FIG. 4). Furthermore, as the rats were allowed to learn by changing the starting points for individual rats, the starting point (S) and quadrant where the escape platform used to be in FIG. 4 differ according to individual rats. […]

hippocampus LTP = details: 22-month-old rats, arachidonic acid diet 10 mg/rat/day for 8 weeks; versus 4-month-old young rats; cited from earlier work

Row | SMILES | absorption (old male Fischer rats; Example 4, inferred from the probe test at the same ingested amount of arachidonic acid) | time spent in the quadrant (¼) where the escape platform used to be, mean±standard deviation (old male Fischer rats; Example 4, 40 mg arachidonic acid/rat/day, group OA 6 animals, group 8A8 8 animals) | degree of learning acquisition (old male Fischer rats; Example 4, old rats, comparison between TGA40S and 8A8 and with young rats) | time spent in the quadrant (¼) where the escape platform used to be, mean±standard deviation (old male Fischer rats; Example 5, arachidonic acid per rat per day: 8A8 diet 40 g (so in the source), 8A8-containing oil or fat diet 13.2 mg) | hippocampus LTP levels (hippocampus LTP)
1 | CCCCC/C=C\C/C=C\C/C=C\C/C=C\CCCC(=O)OC(COC(=O)CCCCCCC)COC(=O)CCCCCCC [8A8, 1,3-capryloyl-2-arachidonoyl-glycerol] | more easily absorbed than TGA40S | 27.18 ± 5.10 s | tended to result in a higher degree of learning acquisition | 27.00 ± 4.65 s | 
2 | CCCCC/C=C\C/C=C\C/C=C\C/C=C\CCCC(=O)O [arachidonic acid] |  |  |  |  | recovery to the level of young rats
